Laboratory results from paper PMC6272390, “Xanthones from the Leaves of Garcinia cowa Induce Cell Cycle Arrest, Apoptosis, and Autophagy in Cancer Cells” (Molecules, 2015).

Key:
PANC-1 = assay: CCK-8 cytotoxicity assay, PANC-1; format: cell-based; conditions: Homo sapiens, CCK-8, 72 h treatment
Description: (§1) The CCK-8 assay was used to determine cell viability. Test samples were dissolved in dimethyl sulfoxide (DMSO) to make stock solutions and further diluted in culture medium for assays. Human cancer cell lines (HeLa, PANC-1, and A549) were cultured in RPMI 1640, DMEM or DMEM/F12 (1:1) medium containing 10% fetal bovine serum. Cells were maintained at 37 °C in a humidified environment under 5% CO2. Cell proliferation assays were performed as previously described. Briefly, each cell line was seeded in a 96-well tissue culture plate at a predetermined density in 180 µL of complete medium, attached overnight and treated with test compound for 72 h. Then the medium was discarded and replaced with 10% CCK-8 in complete medium and the plates incubated for another 2 h. OD450 was measured with a SpectraMAX 190 spectrophotometer (MDS, Sunnyvale, CA, USA). Background absorbance was subtracted for all wells. Inhibition rate (IR) was determined. IR (%) = (ODDMSO − ODcompound)/ODDMSO × 100%.

HeLa, PANC-1, and A549 = assay: Cytotoxicity against cell line panel (summary statements); format: cell-based; conditions: Homo sapiens; summary of Table 2; cell line not specified; read-out: Inhibition on cell viability, IC50
Description: as §1

[1] = system: HeLa cells (PARP, caspase-3, LC3B, p62); assay: Western blot of apoptosis and autophagy related proteins; format: cell-based, human; conditions: 24 h
Description: Figure 4 Effects of 1, 5, 16, and 17 on apoptosis and autophagy related proteins. Western blots of p62, LC3B, PARP, Caspase 3, and GAPDH of HeLa cells after 24 h treatment with 1, 5, 16, and 17. Etoposide was used as positive control.
Cell lysate was prepared in RIPA buffer and quantified by the bicinchoninic acid (BCA) method (Pierce, Rockford, IL, USA). Thirty micrograms of protein per sample was loaded onto a 4%~12% NuPAGE® Novex SDS gel. Protein was transferred using an iBlot® dry blotting device onto nitrocellulose membranes. After blocking nonspecific binding with TBS/Tween20 (0.1%) (TBS/T) containing 5% non-fat milk for 1 h at room temperature, the membrane was incubated in LC3B (Sigma, L7543), SQSTM1/p62 (MBL, PM045), PARP (CST #9542P, Cell Signaling Technology, Shanghai, China), or caspase-3 (CST #9662P, Cell Signaling Technology) (1:1000 in TBS/T containing 3% bovine serum albumin (BSA) in all cases) with gentle shaking at 4 °C overnight. Membranes were washed three times with TBS/T to remove unbound antibody and then incubated with secondary antibody (HRP-conjugated goat anti-mouse IgG or goat anti-rabbit IgG (1:5000) for 1 h at room temperature. Protein bands were visualized with an enhanced chemiluminescence kit (ECL, Pierce).

HeLa = assay: CCK-8 cytotoxicity assay, HeLa; format: cell-based; conditions: Homo sapiens, CCK-8, 72 h treatment
Description: as §1

[2] = CCK-8 cytotoxicity assay, immortalized HL7702 normal liver cells; format: cell-based; conditions: immortalized HL-7702 normal liver cells; CCK-8, 72 h treatment; normal human liver cells, selectivity
HeLa cells = assay: Flow cytometry analysis of apoptosis and cell cycle arrest (PI staining); format: cell-based, human; conditions: 24 h, FACS
Description: Figure 3 Effects of 1, 5, 16, and 17 on cell cycle and apoptosis. HeLa cells were treated with indicated chemicals. After 24 h of treatment, the cells were harvested, fixed in 70% EtOH, and stained with PI. The cell cycle and apoptosis rate were detected by FACS. Etoposide is used as positive control; (A) Cell cycle attribution of HeLa cells under different concentration treatment; (B) Apoptotic rates were acquired from Sub-G1 fraction from A.
Hypodiploid DNA and cell cycle arrest were evaluated as described previously. Briefly, after treatment of HeLa cancer cells with vehicle (0.1% DMSO) or test compound at the indicated concentrations and times, the cells were harvested by trypsinization and fixed with 70% (v/v) alcohol at 4 °C for 30 min. After washing with PBS, RNase (10 µg/mL) was added and incubated for 15 min at 37 °C to eliminate RNA interference. The cells were then treated with propidium iodide (PI) for another 30 min. The cells were washed, and the DNA content determined using FACSCalibur.

A549 = assay: CCK-8 cytotoxicity assay, A549; format: cell-based; conditions: Homo sapiens, CCK-8, 72 h treatment
Description: as §1

[3] = system: HeLa cells stably expressing GFP-LC3; assay: GFP-LC3 puncta imaging; format: cell-based, human; conditions: HeLa-GFP-LC3 cells, 10, 20 µM, 24 h, confocal images
Description: Figure 5 Xanthone V1 (17) induces GFP-LC3 puncta formation in HeLa cells. HeLa cells stably expressing GFP-LC3 were seeded in a 96-well dish and treated with 10, 20 µM 17 for 24 h. (A) The number of GFP-LC3 puncta in each samples were calculated by Columbus software. The number was averaged of cells from three wells; (B) The images of GFP-LC3 puncta after 10, 20 µM treatment Xanthone V1 were acquired by an Opera (GFP ex and em) with a 40×-H2O objective. Left Panel: the original GFP-LC3 puncta; Right panel: the spots were auto-analyzed by Columbus software.
HeLa cells stably expressing GFP-LC3 were generated as previously described. Briefly, HeLa cells were transfected with pEGFP-LC3 plasmid using Lipofectamine 2000 (11668-019, Invitrogen, Carlsbad, CA, USA). One day after transfection, the cells were treated with 800 μg/mL G418 for 7 days. Surviving cells (termed HeLa-GFP-LC3 below) were continually cultured with 800 μg/mL G418. HeLa-GFP-LC3 cells were seeded in a 96-well plate overnight (clear bottom, black, Perkin-Elmer, Waltham, MA, USA). The cells were then treated with test compounds in triplicate. After 48 h, the cells were fixed with 4% paraformaldehyde and washed three times with PBS. […] The data were analyzed using Columbus 2.3 software (Perkin-Elmer). To quantify GFP-LC3 spots, the following procedures were performed: 1. […]

CC1(C)C=Cc2c(cc3oc4c(O)c(O)ccc4c(=O)c3c2O)O1 [Compound 16, jacareubin]
IC50 (PANC-1): 10.1 ± 7.91 µM | IC50 (HeLa, PANC-1, and A549): < 10 µM | PARP cleavage [1]: activated PARP cleavage | IC50 (HeLa): 1.09 ± 0.67 µM | IC50 at 72 h [2]: 5.5 ± 1.79 µM | Cell cycle arrest phase (HeLa cells): at the G2/M phase | Induction of apoptosis (Sub-G1 fraction) (HeLa cells): induced apoptosis | IC50 (A549): 6.9 ± 2.23 µM

CC(C)=CCc1c(O)c(O)c2oc3c(CC=C(C)C)c(O)ccc3c(=O)c2c1O [Compound 1, 1,3,4,6-tetrahydroxy-2,5-di(3-methylbut-2-enyl)-xanthone]
IC50 (PANC-1): 14.8 ± 8.68 µM | IC50 (HeLa, PANC-1, and A549): < 10 µM | IC50 (HeLa): 8.09 ± 0.78 µM | IC50 at 72 h [2]: 11 ± 4.36 µM | Cell cycle arrest phase (HeLa cells): at the G2/M phase | IC50 (A549): 12.6 ± 4.3 µM

C=C(C)C(O)C[C@H](C[C@@]12C[C@@H](CC=C(C)C)C(C)(C)[C@@](CC=C(C)C)(C(=O)C(C(=O)c3ccc(O)c(O)c3)=C1O)C2=O)C(=C)C (stereo partly shown) [Compound 8, garcimultiflorone E]
IC50 (PANC-1): 17.7 ± 1.56 µM | IC50 (HeLa, PANC-1, and A549): < 10 µM | IC50 (HeLa): 17.6 ± 1.45 µM | IC50 at 72 h [2]: 7.34 ± 0.65 µM | IC50 (A549): 7.57 ± 0.57 µM

CC(C)=CCc1c2c(c3oc4c(O)c(O)ccc4c(=O)c3c1O)C=CC(C)(C)O2 [Compound 5, 1,5,6-trihydroxy-2-prenyl-6′,6′-dimethyl-2H-pyrano(2′,3′:3,4)xanthone]
IC50 (PANC-1): 9.32 ± 4.58 µM | IC50 (HeLa, PANC-1, and A549): < 10 µM | PARP cleavage [1]: activated PARP cleavage | IC50 (HeLa): 7.06 ± 0.71 µM | IC50 at 72 h [2]: 10.5 ± 4.12 µM | Cell cycle arrest phase (HeLa cells): cell cycle arrest at the S phase in a dose-dependent fashion | IC50 (A549): 8.19 ± 0.99 µM

CC(C)=CCc1c2c(c(O)c3c(=O)c4ccc(O)c(O)c4oc13)C=CC(C)(C)O2 [Compound 17, xanthone V1]
GFP-LC3 puncta formation [3]: an increase in GFP-LC3 puncta was observed | IC50 (PANC-1): 6.56 ± 2.55 µM | IC50 (HeLa, PANC-1, and A549): < 10 µM | Conversion of LC3-I to LC3-II [1]: increased the conversion of LC3-I to LC3-II | PARP cleavage [1]: activated PARP cleavage | p62 level [1]: p62 reduction | IC50 (HeLa): 4.71 ± 0.52 µM | IC50 at 72 h [2]: 9.5 ± 3.74 µM | Cell cycle arrest phase (HeLa cells): at the G1 phase | Induction of apoptosis (Sub-G1 fraction) (HeLa cells): induced apoptosis | IC50 (A549): 11.8 ± 6.29 µM

C=C(C)C(CC=C(C)C)C[C@@]12C[C@@H](CC=C(C)C)C(C)(C)[C@@](CC=C(C)C)(C1=O)c1oc3cc(O)c(O)cc3c(=O)c1C2=O (stereo partly shown) [Compound 15, symphonone H]
IC50 (PANC-1): 11.2 ± 4.89 µM | IC50 (HeLa, PANC-1, and A549): < 10 µM | IC50 (HeLa): 9.83 ± 0.61 µM | IC50 at 72 h [2]: 3.96 ± 2.38 µM | IC50 (A549): 6.27 ± 0.71 µM

COc1cc([C@@H]2c3cc4c(cc3[C@@H](O[C@@H]3O[C@@H]5CO[C@@H](C)O[C@H]5[C@H](O)[C@H]3O)[C@H]3COC(=O)[C@H]23)OCO4)cc(OC)c1O [Etoposide, reference compound]
IC50 (PANC-1): 22.8 ± 1.93 µM | IC50 (HeLa): 2.91 ± 0.16 µM | IC50 at 72 h [2]: 1.42 ± 0.13 µM | IC50 (A549): 1.31 ± 0.09 µM
